Laboratory results reported in paper PMC6105163, “Abaloparatide Exerts Bone Anabolic Effects with Less Stimulation of Bone Resorption-Related Factors: A Comparison with Teriparatide” (Calcified Tissue International, 2018).

How the values were obtained:
OVX rats [1] = experiment: L4 vertebral bone strength in OVX rats; type: in vivo, Sprague–Dawley rats (female); settings: once daily s.c. for 28 days, day 28, vs OVX, n = 8 or 9
Excerpt: (§1) Ten-week-old female Sprague–Dawley rats were purchased from Charles River Laboratories Japan, Inc. (Kanagawa, Japan) and ovariectomized at 12 weeks old. Thirty-five days after surgery, rats received once daily subcutaneous injection of ABL, TPTD, or vehicle (saline containing 0.1% heat-inactivated rat serum) for 28 days. Day 0 indicates the day when administration was started. On day 26, rats were anesthetized with intraperitoneally administered pentobarbital sodium and the lumbar spine (L4 and L5) BMD was measured with a PIXImus2 (GE Healthcare, Chicago, IL). Blood (collected from the tail vein) and urine samples were obtained on day 28. Prior to collection, rats were fasted for 15–17 h. Rats were euthanized after the blood and urine collection, and the lumbar spine was removed for the measurement of bone strength. All experimental procedures were approved by the Animal Care and Use Committee of Teijin Institute for Bio-Medical Research.
L4 was isolated from the lumbar spine. The height of the vertebral body was measured with a vernier caliper. To obtain vertebral body specimens, the cranial and caudal ends of the vertebral body were cut with a diamond saw to a height of 4 mm. Bone strength was measured with a MZ-500S (MARUTO Testing Machine Company, Tokyo, Japan).

osteocyte-like SaOS-2 = experiment: WNT signaling antagonist gene expression (qRT-PCR); type: cell-based, human; settings: 100 nmol/L, n = 3; for DKK1 (gene expression and protein secretion) / sclerostin (gene expression and protein secretion): continuous treatment (Fig. 4e, f), qRT-PCR and ELISA; for DKK1 gene expression / sclerostin gene expression: treatment limited to first 6 h (Fig. 4c), day 30 cells
Description: (§2) SaOS-2 was cultured in 48-well plates at a density of 5 × 10^4 cells/well in DM for 30 days. Cells were treated with ABL and TPTD at a concentration of 100 nmol/L. Six hours after treatment, cells were washed with PBS twice, and cultured with peptide-free or peptide-containing medium for the rest of the experimental period.
(§3) Cells were lysed and total RNA was extracted using an RNeasy Mini Kit (Qiagen, Valencia, CA, USA). RNA was reverse-transcribed into cDNA using the SuperScript III First-Strand Synthesis System for RT-PCR (Invitrogen, Carlsbad, CA, USA). Quantitative RT-PCR was performed on a 7500 Real-Time PCR System (Applied Biosystems) using Power SYBR Green PCR Master Mix (Thermo Fisher Scientific, Waltham, MA, USA). The primers used in this study were as follows: 5′-CGATGGTGGATGGCTCATG-3′ (forward) and 5′-ACCAGATGGGATGTCGGTG-3′ (reverse) for RANKL, 5′-[…]-3′ (forward) and 5′-[…]-3′ (reverse) for M-CSF, 5′-[…]-3′ (forward) and 5′-[…]-3′ (reverse) for OPG, 5′-[…]-3′ (forward) and 5′-[…]-3′ (reverse) for IGF1, 5′-[…]-3′ (forward) and 5′-[…]-3′ (reverse) for osteocalcin, 5′-[…]-3′ (forward) and 5′-[…]-3′ (reverse) for DMP1, 5′-[…]-3′ (forward) and 5′-[…]-3′ (reverse) for SOST, 5′-[…]-3′ (forward) and 5′-[…]-3′ (reverse) for DKK1, 5′-GTGAAGGTCGGAGTCAACG-3′ (forward) and 5′-TGAGGTCAATGAAGGGGTC-3′ (reverse) for GAPDH.

SaOS-2 [2] = experiment: M-CSF protein secretion (ELISA); type: cell-based, human; settings: 100 nmol/L, n = 3; for M-CSF protein secretion: continuous treatment (Fig. 2c), ABL and TPTD did not differ significantly
Description: as §2, with “10” for “30”, “The medium was replaced with serum-free DM for culture under starvation conditions. Twenty-four hours after the start of starvation, cells” for “Cells”
Human Quantikine M-CSF, Sclerostin, and DKK1 ELISA kits (R&D Systems, Minneapolis, MN, USA) were used to quantify M-CSF, sclerostin, and DKK1, respectively, in the cell supernatants according to the manufacturer’s instructions.

SaOS-2 [3] = experiment: Bone resorption-related factor gene expression (qRT-PCR); type: cell-based, human; settings: 100 nmol/L; for M-CSF mRNA expression / OPG mRNA expression / RANKL mRNA expression / RANKL/OPG mRNA expression: continuous treatment (Fig. 2b); for expression of bone resorption-related factors such as RANKL/OPG and M-CSF: human osteoblastic cells
Description: as §2, with “10” for “30”, “The medium was replaced with serum-free DM for culture under starvation conditions. Twenty-four hours after the start of starvation, cells” for “Cells”
as §3

OVX rats [4] = experiment: Bone resorption marker urine DPD/Cr in OVX rats; type: in vivo, Sprague–Dawley rats (female); settings: once daily s.c.; for urinary DPD/Cr at 5.0 nmol/kg: day 28; for urinary DPD/Cr, significance: day 28, n = 8 or 9
Excerpt: as §1
Serum P1NP concentration was measured with a Rat/Mouse PINP EIA kit (Immunodiagnostic Systems, Boldon, UK). Urine DPD concentration was measured with an Osteolinks DPD kit (Quidel, San Diego, CA, USA). Urine creatinine (Cr) concentration was measured with a 7180 Autoanalyzer (Hitachi High-Technologies Corporation, Tokyo, Japan).

OVX rats [5] = experiment: Lumbar spine (L4-L5) BMD in OVX rats; type: in vivo, Sprague–Dawley rats (female); settings: once daily s.c. for 28 days, BMD on day 26 (PIXImus2), vs OVX, n = 8 or 9
Excerpt: as §1

osteoblasts = settings: cited from earlier work
Excerpt: The mechanism of action of TPTD on bone turnover is not fully understood; however, many studies have examined the molecular mechanisms in recent decades. According to a previous study, PTH(1–34) acts on osteoblasts and indirectly induces bone resorption by activating osteoclasts. PTH(1–34) increases the expression of receptor activator of nuclear factor kappa-B ligand (RANKL) and macrophage colony-stimulating factor (M-CSF) and decreases the expression of osteoprotegerin (OPG), a decoy receptor of RANKL [9]. These effects of PTH(1–34) further promote the maturation of osteoclasts with ... || We next investigated the effect of ABL on bone formation in SaOS-2. In the previous study, bone formation related to PTH1R signaling was enhanced by the intermittent treatment of TPTD in osteoblasts. This anabolic effect of intermittent TPTD treatment was mediated by IGF-1, which promoted the differentiation and mineralization of osteoblasts. We therefore evaluated the effects on IGF-1 and osteocalcin, a marker gene for differentiated osteoblasts, with a repeating 6-h exposure cycle of ABL and TPTD in SaOS-2 (Fig. 3a). As expected, ABL as well as TPTD increased the gene expressio ...

osteoporosis = settings: cited from earlier work
Excerpt: In fact, teriparatide (TPTD), the N-terminal 34 amino acids fragment of PTH, is currently the only bone anabolic agent used for the treatment of osteoporosis, by daily or weekly subcutaneous administration.

Substance	lumbar spine (L4) bone strength (OVX rats [1])	DKK1 (gene expression and protein secretion) (osteocyte-like SaOS-2)	sclerostin (gene expression and protein secretion) (osteocyte-like SaOS-2)	DKK1 gene expression (osteocyte-like SaOS-2)	sclerostin gene expression (osteocyte-like SaOS-2)	M-CSF protein secretion (SaOS-2 [2])	M-CSF mRNA expression (SaOS-2 [3]; n = 3)	OPG mRNA expression (SaOS-2 [3]; n = 3)	RANKL mRNA expression (SaOS-2 [3]; n = 3)	RANKL/OPG mRNA expression (SaOS-2 [3]; n = 3)	expression of bone resorption-related factors such as RANKL/OPG and M-CSF (SaOS-2 [3])	urinary DPD/Cr at 5.0 nmol/kg (OVX rats [4])	urinary DPD/Cr, significance (OVX rats [4])	lumbar spine BMD (OVX rats [5])	also measured
[Glu^22,25, Leu^23,28,31, Aib^29, Lys^26,30] human PTHrP(1–34)–NH2 [Abaloparatide]	significantly increased	similarly inhibited	similarly inhibited	similarly suppressed	similarly suppressed	increased	similarly promoted	inhibited	similarly promoted	similarly promoted	increased	a slight increase	no significant differences	significantly increased	M-CSF protein secretion, ABL vs TPTD (SaOS-2 [2]; transient treatment (first 6 h) (Fig. 2e)): significantly less with ABL treatment than with TPTD; M-CSF expression, ABL vs TPTD (SaOS-2 [3]; transient 6-h treatment): less than TPTD; RANKL/OPG expression, ABL vs TPTD (SaOS-2 [3]; transient 6-h treatment): less than TPTD; bone resorption-related factors mRNA, ABL vs TPTD (SaOS-2 [3]; transient treatment (first 6 h, then washed out) (Fig. 2d), n = 3): significantly attenuated as compared with TPTD
human PTH(1–34) [Teriparatide]	significantly increased	similarly inhibited	similarly inhibited	similarly suppressed	similarly suppressed	increased	similarly promoted	inhibited	similarly promoted	similarly promoted	increased	a slight increase	no significant differences	significantly increased	bone formation related to PTH1R signaling (osteoblasts; intermittent treatment, osteoblasts, ref [18]): enhanced; OPG expression (osteoblasts; ref [9]): decreases; RANKL and M-CSF expression (osteoblasts; ref [9]): increases; IGF-1 expression (osteoblasts; ref [10]): enhancement; BMD vs antiresorptive agents such as bisphosphonates (osteoporosis; daily or weekly subcutaneous): greater than antiresorptive agents; effect on the hip (osteoporosis; daily or weekly subcutaneous): modest; blood calcium (osteoporosis; in vivo): mildly increased
